From patent publication US12006314B2, “Anti-cancer nuclear hormone receptor-targeting compounds” (Nuvation Bio Inc., priority 2021, dated 2024) come the findings set out here.

pIC50: −log10 of the molar value.

The subject of one assay is MCF7 cells. The experiment in a line: Cell viability assay MCF7. It is filed as cell-based. Particulars: Homo sapiens, MCF7, 144 h; 6 days, CellTiterGlo. How it is done:
(§1) Cell viability assay: LNCap, 22Rv1, MCF7, MDAMB361, T47D, and IEC6 cells were seeded at a density of 500-2000 cells/well in 96 well plates, and a ‘T0’ (timepoint 0) was included along with the assay plate. The plates were then incubated at 37° C., 5% CO2 in a cell culture incubator overnight. On the next day, the ‘T0’ plate was assayed using CellTiterGlo (Promega, Inc) according to the manufacturer's instructions. The appropriate compounds were diluted in DMSO and added to the assay plate (final DMSO concentration of 0.1-0.2%) on the next day. The assay plates were incubated for 6 days at 37° C., 5% CO2. After the incubation period, the plates were assayed using CellTiterGlo (Promega, Inc) according to the manufacturer's instructions and luminescence was read on the EnVision plate reader. Inhibition of the tested compounds was determined by the following formula: Inhibition rate (%)=(1−(RLU compound−RLU day0)/(RLU control−RLU day0))*100%. GraphPadPrism was used to analyze the data and determine GI50/IC50 values.
For orientation: ATP-based viability assays read luminescence as a measure of living cells.

For another assay, the system named is MDAMB361 cells. The experiment in a line: Cell viability assay MDAMB361. The format is cell-based. The conditions noted are these: Homo sapiens, MDA-MB-361, 144 h; 6 days, CellTiterGlo. How it is done: as §1
Assay [1] concerns the target T1, ER (SK-BR-3 cells transfected with ERE plasmid and ER) (Homo sapiens, UniProt P03372).
T1 construct: expressed in transfected cells; host or cells: SK-BR-3 (transient, lipofectamine 3000)
T1 sequence (P03372 1-595): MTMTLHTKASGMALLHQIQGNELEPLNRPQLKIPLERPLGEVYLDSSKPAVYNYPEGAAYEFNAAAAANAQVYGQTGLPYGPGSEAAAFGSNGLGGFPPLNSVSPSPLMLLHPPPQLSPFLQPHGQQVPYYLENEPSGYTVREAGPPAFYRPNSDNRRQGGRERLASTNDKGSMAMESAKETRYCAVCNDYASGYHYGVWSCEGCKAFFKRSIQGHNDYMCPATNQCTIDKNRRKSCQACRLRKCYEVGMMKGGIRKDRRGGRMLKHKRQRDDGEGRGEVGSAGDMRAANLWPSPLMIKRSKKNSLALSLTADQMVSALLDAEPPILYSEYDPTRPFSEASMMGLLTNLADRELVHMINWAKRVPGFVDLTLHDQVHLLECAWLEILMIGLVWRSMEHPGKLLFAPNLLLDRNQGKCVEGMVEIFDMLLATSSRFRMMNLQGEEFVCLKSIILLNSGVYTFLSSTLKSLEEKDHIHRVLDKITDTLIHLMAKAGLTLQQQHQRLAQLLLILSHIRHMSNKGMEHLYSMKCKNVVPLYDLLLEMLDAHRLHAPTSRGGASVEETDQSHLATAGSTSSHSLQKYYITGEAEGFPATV
The experiment in a line: ER antagonism assay. The format is cell-based. Particulars: 100 nM β-Estradiol, 24 h, Dual-glo luciferase. How it is done:
ER antagonism assay: To evaluate ER antagonist activity, SK-BR-3 cells were seeded at a density of 30000 cells/well in the assay plate. The assay plate was then incubated at 37° C., 5% CO2 for 24 h. A mixture of ERE plasmid and ER in opti-MEM media was incubated with lipofectamine 3000 in Opti-MEM media and incubated at room temperature for 15 minutes. 10 μL of this transfection mix was added to each well of the assay plate and the assay plate was incubated at 37° C., 5% CO2 for 24 h. 100 nM β-Estradiol in 10 μL medium or 10 μL medium (control wells) was added to corresponding wells of assay plate and incubated at 37° C. 5% CO2 for 24 h. After the incubation period, 50 μL of Dual-glo luciferase reagent was added to the assay plate and mixed at room temperature for 20 mins on an orbital shaker, before reading out on the EnVision plate reader. 50 μL of Stop & Glo reagent was added to assay plate, mixed at room temperature for 20 minutes, and read on the Envision plate reader.

Assay [2] deals with T2, ER Alpha-ligand binding domain (LBD) (Homo sapiens, UniProt P03372).
T2 sequence (P03372 311-547 limits assumed): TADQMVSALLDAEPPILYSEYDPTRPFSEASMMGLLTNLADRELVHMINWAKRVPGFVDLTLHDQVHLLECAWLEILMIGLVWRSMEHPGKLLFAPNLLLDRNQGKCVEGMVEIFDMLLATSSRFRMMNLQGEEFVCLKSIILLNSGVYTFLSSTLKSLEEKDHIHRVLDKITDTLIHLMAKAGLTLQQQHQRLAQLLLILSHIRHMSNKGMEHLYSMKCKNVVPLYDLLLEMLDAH
The experiment in a line: ER binding assay (LanthaScreen TR-FRET ER Alpha Competitive Binding). The conditions noted are these: Fluormone ES2 Green tracer 3 nM, 2 h. How it is done:
ER binding assay: ERα binding was assessed using the LanthaScreen® TR-FRET ER Alpha Competitive Binding kit from ThermoFisherScientific. In this assay, a terbium-labeled anti-GST antibody was used to indirectly label GST-tagged ER Alpha-ligand binding domain (LBD) by binding to its GST tag. Competitive binding to the ER Alpha-LBD (GST) was detected by a test compound's ability to displace a fluorescent ligand (Fluormone™ ES2 Green tracer) from the ER Alpha-LBD (GST), which results in a loss of FRET signal between the Tb-anti-GST antibody and the tracer. To assess ER binding, test compound (top dose 10 μM, 4 fold serial dilution, 8 point dose response) and controls (e.g. estradiol) were transferred to the assay plate. The Fluormone™ ES2 Green tracer (3 nM final concentration with assay buffer) was added to the assay plate. This was followed by addition of a mixture of the ER Alpha-LBD (GST) and terbium anti-GST antibody. After a 2 h incubation period at room temperature, the plate was read on the Envision plate reader and the TR-FRET ratio of 520:495 emissions were calculated and used to determine the IC50 from a dose response curve of the compound.
(Time-resolved FRET reads energy transfer from a long-lived donor to a nearby acceptor.)

The next assay deals with IEC6 cells. The experiment in a line: Cell viability assay IEC6. The format is cell-based. The conditions noted are these: Rattus norvegicus, IEC-6, 144 h; 6 days, CellTiterGlo. How it is done:
as §1

By GI50 is commonly meant the concentration that inhibits growth by half. As usually defined, the pIC50 is the IC50 on a negative log10 scale, so that one unit is a factor of ten. A high value points to a small IC50.

Take `CCc1cc2ncc(CN3CCN(C(=O)CCCCCOc4cc(F)c([C@@H]5c6[nH]c7ccccc7c6C[C@@H](C)N5CC(C)(C)F)c(F)c4)CC3)cc2[nH]c1=O` [Compound 61, 7-((4-(6-(3,5-Difluoro-4-((1R,3R)-2-(2-fluoro-2-methylpropyl)-3-methyl-2,3,4,9-tetrahydro-1H-pyrido[3,4-b]indol-1-yl)phenoxy)hexanoyl)piperazin-1-yl)methyl)-3-ethyl-1,5-naphthyridin-2(1H)-one]: the concentration for 50% growth inhibition (GI50) in the assay on MCF7 cells is ≤ 500 nM; with MDAMB361 cells, > 30000 nM. The pIC50 is ≥ 7.00 in assay [1], ≥ 7.00 in assay [2] and < 4.52 with IEC6 cells.

For `CCc1cc2ncc(CN3CCN(CCCCCCOc4cc(F)c([C@@H]5c6[nH]c7ccccc7c6C[C@@H](C)N5CC(C)(C)F)c(F)c4)CC3)cc2[nH]c1=O` [Compound 72, 7-((4-(6-(3,5-Difluoro-4-((1R,3R)-2-(2-fluoro-2-methylpropyl)-3-methyl-2,3,4,9-tetrahydro-1H-1-pyrido[3,4-b]indol-1-yl)phenoxy)hexyl)piperazin-1-yl)methyl)-3-ethyl-1,5-naphthyridin-2(1H)-one], the concentration for 50% growth inhibition (GI50) in the assay with MCF7 cells and with MDAMB361 cells was ≤ 500 nM in each case. In addition, the negative-log IC50 (pIC50) was ≥ 7.00 in assay [1] and 4.52 to 5.30 with IEC6 cells.

Take `CCc1cc2ncc(CN3CCN(C(=O)COc4cc(F)c([C@@H]5c6[nH]c7ccccc7c6C[C@@H](C)N5CC(C)(C)F)c(F)c4)CC3)cc2[nH]c1=O` [Compound 73, 7-((4-(2-(3,5-Difluoro-4-((1R,3R)-2-(2-fluoro-2-methylpropyl)-3-methyl-2,3,4,9-tetrahydro-1H-pyrido[3,4-b]indol-1-yl)phenoxy)acetyl)piperazin-1-yl)methyl)-3-ethyl-1,5-naphthyridin-2(1H)-one]: the GI50 with MCF7 cells and in the assay on MDAMB361 cells was ≤ 500 nM each time. The pIC50 in assay [1] is ≥ 7.00; in the assay on IEC6 cells, < 4.52.

With `CCc1cc2ncc(CN3CCN(CCOc4cc(F)c([C@@H]5c6[nH]c7ccccc7c6C[C@@H](C)N5CC(C)(C)F)c(F)c4)CC3)cc2[nH]c1=O` [Compound 71, 7-((4-(2-(3,5-Difluoro-4-((1R,3R)-2-(2-fluoro-2-methylpropyl)-3-methyl-2,3,4,9-tetrahydro-1H-pyrido[3,4-b]indol-1-yl)phenoxy)ethyl)piperazin-1-yl)methyl)-3-ethyl-1,5-naphthyridin-2(1H)-one], the GI50 with MCF7 cells was ≤ 500 nM; in the assay on MDAMB361 cells, 500 to 5000 nM. In addition, the negative-log IC50 (pIC50) was ≥ 7.00 in assay [1] and 5.30 to 6.30 with IEC6 cells.

Take `CCc1cc2ncc(CN3CCN(C(=O)[C@H]4CC[C@H](COc5cc(F)c([C@@H]6c7[nH]c8ccccc8c7C[C@@H](C)N6CC(C)(C)F)c(F)c5)CC4)CC3)cc2[nH]c1=O` [Compound 70, 7-((4-((1r,4r)-4-((3,5-Difluoro-4-((1R,3R)-2-(2-fluoro-2-methylpropyl)-3-methyl-2,3,4,9-tetrahydro-1H-pyrido[3,4-b]indol-1-yl)phenoxy)methyl)cyclohexane-1-carbonyl)piperazin-1-yl)methyl)-3-ethyl-1,5-naphthyridin-2(1H)-one]: the 50% growth inhibitory concentration (GI50) is 5000 to 30000 nM with MCF7 cells and ≤ 500 nM in the assay on MDAMB361 cells. For the same compound, the pIC50 in assay [1] is ≥ 7.00; in the assay on IEC6 cells, < 4.52.

As for `CCc1cc2ncc(CN3CCC(N(C)C(=O)COc4cc(F)c([C@@H]5c6[nH]c7ccccc7c6C[C@@H](C)N5CC(C)(C)F)c(F)c4)CC3)cc2[nH]c1=O` [Compound 74, 2-(3,5-Difluoro-4-((1R,3R)-2-(2-fluoro-2-methylpropyl)-3-methyl-2,3,4,9-tetrahydro-1H-pyrido[3,4-b]indol-1-yl)phenoxy)-N-(1-((7-ethyl-6-oxo-5,6-dihydro-1,5-naphthyridin-3-yl)methyl)piperidin-4-yl)-N-methylacetamide], the 50% growth inhibitory concentration (GI50) in the assay with MCF7 cells and in the assay on MDAMB361 cells was ≤ 500 nM in each case. For the same compound, the pIC50 was ≥ 7.00 in assay [1] and 5.30 to 6.30 in the assay on IEC6 cells.
